Experimental findings from patent US11780868B1, “Homoleptic metal coordination complexes as antifungal agents” (King Abdulaziz University, priority 2023, dated 2023) are described below.

One data set concerns horse red blood cells. Nature of the data set: Haemolytic activity. In kind it is cell-based. The note with it: horse RBC. Here is the method: To determine the cytotoxicity of C1, horse red blood cells (H-RBC; NHLS, Johannesburg, South Africa) were used. The horse blood was centrifuged, and the cell pellet was secured and washed three times with cold PBS. The final pellet was dissolved in cold PBS to make a 10% H-RBC solution. From this solution, 15 mL of 1% H-RBC solution was again prepared with the help of PBS. Then, 1 mL was aliquoted and added to various concentrations (0.5×MIC, 1×MIC, 2×MIC and 4×MIC) of C1 in 2 mL Eppendorf tubes. The negative control consisted of the RBC solution mixed with PBS; while the positive control consisted of RBC mixed with 1% Triton X-100. The samples were incubated for 4 h at 37° C. Following incubation, the samples were centrifuged at 2000 rpm for 10 minutes and supernatant (200 μL) was transferred to a flat-bottomed 96-well microtiter plate and the absorbance was measured at 450 nm using a SpectraMax ID3 Multimode Plate Reader (Molecular Devices, LLC., USA). The percentage of haemolysis was calculated by using the following equation: […]

The subject of the next data set is C. albicans 4251. Nature of the data set: Cell count and viability assay (Muse cell analyser). Format: cell-based, Candida albicans. The conditions noted are these: C. albicans 4251 (Flz susceptible), C1 at MFC, 24 h; untreated 90.9%. How it is done: (§1) Quantification of Live/Dead C. albicans cells in response to C1 was carried out. The actual count of viable and dead cells of C. albicans by treatment of C1 was monitored by Cell Count and Viability assay kit. An inoculum (1×10^6 cells/mL) of both Flz sensitive (C. albicans 4251) and resistant (C. albicans 5112) C. albicans strains was prepared followed by treatment with various concentrations of C1 (0.5×MIC, 1×MIC and MFC) for 24 h at 37° C. and 150 rpm. For the negative control, only inoculum treated with 1% DMSO was used and for the positive control, hydrogen peroxide (10 mM) was used in a 1:1 ratio with the inoculum. Following incubation, the cells were then washed in PBS and centrifuged at 4000 rpm for 5 minutes at 4° C. and the final pellet was resuspended in PBS. The Cell Count and Viability assay samples were prepared by mixing 190 μL of Luminex Cell Viability Dilution Buffer and 10 μL of the sample in a 1.5 mL Eppendorf tube and incubated in the dark for 5 min at room temperature. All samples were analysed by a Guava® Muse® Cell Analyser (Luminex A DiaSorin Company, USA).

In the next data set the test system is C. albicans 5112. The data set is described as above. In kind it is cell-based, Candida albicans. The conditions noted are these: C. albicans 5112 (Flz resistant), C1 at MFC, 24 h; untreated 86.8%. Here is the method: as §1
The test system of the next data set is C. albicans cells. Nature of the data set: TUNEL assay for DNA fragmentation. In kind it is cell-based, Candida albicans. The conditions noted are these: 0.5×MIC and 1×MIC, concentration dependent. Here is the method: To examine the effect of C1 on the induction of cellular apoptosis in C. albicans cells, crucial apoptotic markers were observed. For this purpose, C. albicans 4251 and C. albicans 5112 cells were subjected to protoplast preparation by utilizing a method described previously by Srivastava et al. in 2020 through their research study. Briefly, cells were grown overnight and were exposed for 4 h with different concentrations of C1 (0.5×MIC and 1×MIC) and H2O2 (positive control) whereas, untreated cells were used as a negative control. Later on, the cells were washed and incubated for 10 min at room temperature in protoplast buffer-1 (1M sorbitol, 0.05M tris base, 0.01M MgCl2, 0.03M DTT, pH 7.4). The cells were spun at 1500 rpm for 5 min and the pellet was resuspended in protoplast buffer-2 (1M sorbitol, 0.05M tris base, 0.01M MgCl2, 0.001M DTT, pH 7.4) supplemented with lyticase enzyme (1 μg/mL) and incubated for 1 h at room temperature. […]
We further performed an assay to detect the presence of DNA damage in C. albicans, an indicator of late-stage apoptosis. […] The protoplasts were again washed with PBS and all the samples were examined under a fluorescence microscope using Zeiss Laser Scanning Confocal Microscope (LSM) 780 (Carl Zeiss Microscopy, Jena, Germany). […]

Consider `Brc1ccc([O][Co][O]c2ccc(Br)cc2C=Nc2ccc3c(c2)OCCO3)c(C=Nc2ccc3c(c2)OCCO3)c1` [Complex C1, [Co(L)2]], for which the “haemolytic activity (in words)” value in the data set with horse red blood cells is reported as “considerably less haemolytic activity”. Moreover, the haemolytic activity in the data set on horse red blood cells (4×MIC, 4 h, 37° C.) was 10%. In addition, the figures for the live cells in the data set on C. albicans 4251 and in the data set on C. albicans 5112 were 4.3% and 8.4%, respectively. For the same compound, in the data set with C. albicans cells, the “DNA fragmentation (TUNEL-positive cells)” value is “effective at inducing DNA fragmentation”.
